{"source": "patent US20240016803A1", "about": "“PHARMACEUTICAL COMPOSITION COMPRISING EICOSAPENTAENOIC ACID AND DERIVATIVES THEREOF AND A STATIN” (Amarin Pharmaceuticals Ireland Limited, priority 2013, published 2024)", "origin": "cited, not measured here", "settings": "repeated twice-daily dosing of 2 icosapent ethyl 1 g capsules (4 g/d total); previously reported", "data": [{"compound": "CC/C=C\\C/C=C\\C/C=C\\C/C=C\\C/C=C\\CCCC(=O)OCC", "note": "[icosapent ethyl]", "values": [{"measurement": "mean elimination half-life (t1/2) for total plasma EPA", "result": 89, "unit": "h"}]}]}
